Test results reported in patent US20220259593A1, “CONTROL OF MAMMALIAN GENE DOSAGE USING CRISPR” (The Regents of the University of California, priority 2019, published 2022).

Legend:
[1] = system: K562 CRISPRi cells; assay: Perturb-seq pooled growth measurement (sgRNA counts, growth phenotype γ, relative activity); assay type: cell-based, human; conditions: for gamma_day5 / gamma_day10: pooled growth phenotype γ of the Perturb-seq sgRNA; for gamma_day5: day 5, K562 CRISPRi cells; for gamma_day10: day 10, K562 CRISPRi cells; for relative_activity_day5: γ relative to perfectly matched sgRNA (_00) of the same gene, day 5
Procedure, shortened: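 CRISPRi K562 cells from the Perturb-seq transduced pool; 500,000-cell samples taken days two, seven and twelve post-transduction. sgRNA amplicons from genomic DNA sequenced; growth phenotypes from normalized sgRNA abundances at days seven and twelve versus day two. Relative activity assigned from day seven (five days' growth).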

[2] = system: K562 CRISPRi cells; assay: as above; assay type: cell-based, human; conditions: γ relative to perfectly matched sgRNA (_00) of the same gene, day 10

CAD_ + _27440280.23-P1P2_06 (guide GGCTGGAGAGTAGCCGGGCG; listed as DNA, chemistry not fully specified)
gamma_day5 [1]: −0.3975 | gamma_day10 [1]: −0.3141 | relative_activity_day5 [1]: 0.5153 | relative_activity_day10 [2]: 0.4592

CAD_ + _27440280.23-P1P2_07 (guide GGCTGGAGCGAAGCCGGGCG; listed as DNA, chemistry not fully specified)
gamma_day5 [1]: −0.6026 | gamma_day10 [1]: −0.4659 | relative_activity_day5 [1]: 0.7812 | relative_activity_day10 [2]: 0.6811

CAD_ + _27440280.23-P1P2_13 (guide GGCTGGAGAGAAGCCTGGCG; listed as DNA, chemistry not fully specified)
gamma_day5 [1]: −0.1861 | gamma_day10 [1]: −0.1648 | relative_activity_day5 [1]: 0.2413 | relative_activity_day10 [2]: 0.241

CDC23_ −_137548987.23-P1P2_00 (guide GACAGCCACCGGGACCATGG; listed as DNA, chemistry not fully specified)
gamma_day5 [1]: −1.176 | gamma_day10 [1]: −0.6584 | relative_activity_day5 [1]: 1 | relative_activity_day10 [2]: 1

CDC23_ −_137548987.23-P1P2_02 (guide GACAGCTACCGGGACCATGG; listed as DNA, chemistry not fully specified)
gamma_day5 [1]: −1.087 | gamma_day10 [1]: −0.5705 | relative_activity_day5 [1]: 0.9238 | relative_activity_day10 [2]: 0.8665

CDC23_ −_137548987.23-P1P2_04 (guide GACAGCCAACGGGACCATGG; listed as DNA, chemistry not fully specified)
gamma_day5 [1]: −0.8887 | gamma_day10 [1]: −0.5364 | relative_activity_day5 [1]: 0.7556 | relative_activity_day10 [2]: 0.8148

CDC23_ −_137548987.23-P1P2_08 (guide GACAGCCATCGGGACCATGG; listed as DNA, chemistry not fully specified)
gamma_day5 [1]: −0.9559 | gamma_day10 [1]: −0.5501 | relative_activity_day5 [1]: 0.8128 | relative_activity_day10 [2]: 0.8355

CDC23_ −_137548987.23-P1P2_11 (guide GACAGCCACCGGGACCACGG; listed as DNA, chemistry not fully specified)
gamma_day5 [1]: −0.2745 | gamma_day10 [1]: −0.2018 | relative_activity_day5 [1]: 0.2334 | relative_activity_day10 [2]: 0.3065

COX11_ + _53045977.23-P1P2_00 (guide GGCTCTGGCGTCCTGGATGG; listed as DNA, chemistry not fully specified)
gamma_day5 [1]: −0.1817 | gamma_day10 [1]: −0.2988 | relative_activity_day5 [1]: 1 | relative_activity_day10 [2]: 1

COX11_ + _53045977.23-P1P2_03 (guide GGCTCTGTCGTCCTGGATGG; listed as DNA, chemistry not fully specified)
gamma_day5 [1]: −0.1719 | gamma_day10 [1]: −0.2875 | relative_activity_day5 [1]: 0.9463 | relative_activity_day10 [2]: 0.9622

COX11_ + _53045977.23-P1P2_04 (guide GGCTCTGGCGCCCTGGATGG; listed as DNA, chemistry not fully specified)
gamma_day5 [1]: −0.1495 | gamma_day10 [1]: −0.2574 | relative_activity_day5 [1]: 0.8227 | relative_activity_day10 [2]: 0.8616

COX11_ + _53045977.23-P1P2_05 (guide GGCTCTGGCGTCTTGGATGG; listed as DNA, chemistry not fully specified)
gamma_day5 [1]: −0.0555 | gamma_day10 [1]: −0.108 | relative_activity_day5 [1]: 0.3055 | relative_activity_day10 [2]: 0.3613

COX11_ + _53045977.23-P1P2_10 (guide GGCTCTGGCGTCCCGGATGG; listed as DNA, chemistry not fully specified)
gamma_day5 [1]: −0.1247 | gamma_day10 [1]: −0.1116 | relative_activity_day5 [1]: 0.6866 | relative_activity_day10 [2]: 0.3734

DBR1_ + _137893744.23-P1P2_00 (guide GTTTGCAGGAGTCTACACCC; listed as DNA, chemistry not fully specified)
gamma_day5 [1]: −0.4556 | gamma_day10 [1]: −0.4893 | relative_activity_day5 [1]: 1 | relative_activity_day10 [2]: 1
